Laboratory results taken from patent US6656932B2, “Benzo thiadiazine matrix metalloproteinase inhibitors” (Warner-Lambert Company, priority 2001, dated 2003).
Read-outs that look alike come from different tables or passages of the source.

Target: MMP-13CD (catalytic domain of collagenase 3) (Homo sapiens, UniProt P45452)
Experiment: Thiopeptolide hydrolysis assay, MMP-13CD
Type: biochemical
Details: thiopeptolide substrate, HEPES pH 7.0
Text: The invention compounds of Formula I have been evaluated in standard assays for their ability to inhibit the catalytic activity of various MMP enzymes.
Thiopeptolide substrates show virtually no decomposition or hydrolysis at or below neutral pH in the absence of a matrix metalloproteinase enzyme.
Several representative compounds have been evaluated for their ability to inhibit various matrix metalloproteinase enzymes.

[1] = Table 2, read-out: IC50 (μM) Versus Certain MMPs: MMP13 (CD)

IC50 [1] [µM]	IC50 (Table 1, read-out: MMP13 (CD) IC50) [µM]	SMILES
1.9	–	COc1ccc(CNC(=O)c2ccc3c(c2)S(=O)(=O)N(CC=C(C)C)C(=O)N3C)cc1 [Example 41, 4-Methyl-2-(3-methyl-but-2-enyl)-1,1,3-trioxo-1,2,3,4-tetrahydro-1l^6-benzo[1,2,4]thiadiazine-7-carboxylic Acid 4-methoxy-benzylamide]
2.2	–	C/C=C/CN1C(=O)N(C)c2ccc(C(=O)NCc3ccc(OC)cc3)cc2S1(=O)=O [Example 38, 2-(E)-But-2-enyl-4-methyl-1,1,3-trioxo-1,2,3,4-tetrahydro-1l^6-benzo[1,2,4]thiadiazine-7-carboxylic Acid 4-methoxy-benzylamide]
–	0.88	CN1C(=O)N(Cc2ccccc2)S(=O)(=O)c2cc(C(=O)NCc3ccccc3)ccc21 [Example 2, 2-Benzyl-4-methyl-1,1,3-trioxo-1,2,3,4-tetrahydro-1l^6-benzo[1,2,4]thiadiazine-7-carboxylic Acid Benzylamide]
13	–	COc1ccc(CNC(=O)c2ccc3c(c2)S(=O)(=O)N(Cc2cscn2)C(=O)N3C)cc1 [Example 47, 4-Methyl-1,1,3-trioxo-2-thiazol-4-ylmethyl-1,2,3,4-tetrahydro-1l^6-benzo[1,2,4]thiadiazine-7-carboxylic Acid 4-methoxy-benzylamide]
63	–	CN1C(=O)N(Cc2ccccc2)S(=O)(=O)c2cc(C(=O)NCc3ccc(CCS(N)(=O)=O)cc3)ccc21 [Example 8, 2-Benzyl-4-methyl-1,1,3-trioxo-1,2,3,4-tetrahydro-1l^6-benzo[1,2,4]thiadiazine-7-carboxylic acid 4-(2-sulfamoyl-ethyl)-benzylamide]
> 30	–	CN1C(=O)N(Cc2ccc(C(=O)OC(C)(C)C)cc2)S(=O)(=O)c2cc(C(=O)NCc3ccccc3)ccc21 [Example 10, 4-(7-Benzylcarbamoyl-4-methyl-1,1,3-trioxo-3,4-dihydro-1H-1l^6-benzo[1,2,4]thiadiazin-2-ylmethyl)-benzoic Acid Tert-Butyl Ester]
100	–	COc1ccc(CNC(=O)c2ccc3c(c2)S(=O)(=O)N(CCS(=O)(=O)c2ccc(C)cc2)C(=O)N3C)cc1 [Example 42, 4-Methyl-1,1,3-trioxo-2-[2-(toluene-4-sulfonyl)-ethyl]-1,2,3,4-tetrahydro-1l^6-benzo[1,2,4]thiadiazine-7-carboxylic Acid 4-methoxy-benzylamide]
1.4	–	CCC#CCN1C(=O)N(C)c2ccc(C(=O)NCc3ccc(OC)cc3)cc2S1(=O)=O [Example 35, 4-methyl-1,1,3-trioxo-2-pent-2-ynyl-1,2,3,4-tetrahydro-1l^6-benzo[1,2,4]thiadiazine-7-carboxylic Acid 4-methoxy-benzylamide]
1.7	–	COC(=O)Nc1cc(CN2C(=O)N(C)c3ccc(C(=O)NCc4ccc(OC)cc4)cc3S2(=O)=O)on1 [Example 46, {5-[7-(4-Methoxy-benzylcarbamoyl)-4-methyl-1,1,3-trioxo-3,4-dihydro-1H-1l^6-benzo[1,2,4]thiadiazin-2-ylmethyl]-isoxazol-3-yl}-carbamic Acid Methyl Ester]
6.3	–	COc1ccc(CNC(=O)c2ccc3c(c2)S(=O)(=O)N(C(C)c2ccccc2)C(=O)N3C)cc1 (stereo not drawn) [Example 36, 4-Methyl-1,1,3-trioxo-2-(1-phenyl-ethyl)-1,2,3,4-tetrahydro-1l^6-benzo[1,2,4]thiadiazine-7-carboxylic Acid 4-methoxy-benzylamide]
3.2	–	COc1ccc(CNC(=O)c2ccc3c(c2)S(=O)(=O)N(CCCCCC#N)C(=O)N3C)cc1 [Example 37, 2-(5-Cyano-pentyl)-4-methyl-1,1,3-trioxo-1,2,3,4.tetrahydro-1l^6-benzo[1,2,4]thiadiazine-7-carboxylic Acid 4-methoxy-benzylamide]
> 30	–	CN1C(=O)N(Cc2ccccc2)S(=O)(=O)c2cc(C(=O)NCc3cc4ccccc4[nH]3)ccc21 [Example 7, 2-Benzyl-4-methyl-1,1,3-trioxo-1,2,3,4-tetrahydro-1l^6-benzo[1,2,4]thiadiazine-7-carboxylic acid (1H-indol-2-ylmethyl)-amide]
